Data taken from patent EP3623369A1, “NOVEL MORPHOLINYL AMINE COMPOUNDS FOR THE TREATMENT OF AUTOIMMUNE DISEASE” (F. Hoffmann-La Roche AG, priority 2018, dated 2020).
pIC50: −log10 of the molar value.

Target: T1, human TLR8 (Homo sapiens, UniProt Q9NR97)
T1 sequence (Q9NR97 27-1041): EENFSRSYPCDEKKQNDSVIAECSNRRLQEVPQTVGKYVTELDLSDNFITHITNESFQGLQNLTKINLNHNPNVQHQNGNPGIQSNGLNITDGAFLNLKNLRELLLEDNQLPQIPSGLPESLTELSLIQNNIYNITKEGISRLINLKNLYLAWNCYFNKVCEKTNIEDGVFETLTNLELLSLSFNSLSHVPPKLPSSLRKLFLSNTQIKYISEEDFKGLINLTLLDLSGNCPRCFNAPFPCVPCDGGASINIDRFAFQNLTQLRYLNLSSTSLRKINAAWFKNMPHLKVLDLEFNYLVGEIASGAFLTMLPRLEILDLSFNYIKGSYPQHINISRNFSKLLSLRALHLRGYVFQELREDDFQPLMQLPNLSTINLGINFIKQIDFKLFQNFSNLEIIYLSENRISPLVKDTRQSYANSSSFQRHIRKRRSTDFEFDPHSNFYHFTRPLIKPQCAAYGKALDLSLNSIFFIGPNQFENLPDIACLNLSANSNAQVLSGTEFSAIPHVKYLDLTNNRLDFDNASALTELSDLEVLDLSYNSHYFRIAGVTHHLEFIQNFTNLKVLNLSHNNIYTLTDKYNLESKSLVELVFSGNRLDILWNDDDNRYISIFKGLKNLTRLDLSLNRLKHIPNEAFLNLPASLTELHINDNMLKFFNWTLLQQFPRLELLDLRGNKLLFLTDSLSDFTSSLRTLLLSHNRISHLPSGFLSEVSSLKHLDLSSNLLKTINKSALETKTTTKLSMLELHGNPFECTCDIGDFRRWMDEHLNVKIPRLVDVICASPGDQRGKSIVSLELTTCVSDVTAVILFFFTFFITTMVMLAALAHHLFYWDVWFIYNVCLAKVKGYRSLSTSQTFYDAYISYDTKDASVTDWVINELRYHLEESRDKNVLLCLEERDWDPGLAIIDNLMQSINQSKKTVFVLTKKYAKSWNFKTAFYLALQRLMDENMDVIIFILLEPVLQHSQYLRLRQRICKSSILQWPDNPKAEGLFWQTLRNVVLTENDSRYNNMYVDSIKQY
Experiment: HEK293-Blue-hTLR-8 cells assay (SEAP reporter, R848 stimulation)
Assay type: cell-based
Settings: HEK293-Blue-hTLR8 cells, R848, 20 hrs; 0.003 is the lowest tested concentration; read-out: HEK/hTLR8 IC50
Experimental: The following tests were carried out in order to determine the activity of the compounds of formula (I) or (Ia) in HEK293-Blue-hTLR-7/8/9 cells assay.
HEK293-Blue-hTLR-8 cells assay:
A stable HEK293-Blue-hTLR-8 cell line was purchased from InvivoGen (Cat.#: hkb-htlr8, San Diego, California, USA). These cells were originally designed for studying the stimulation of human TLR8 by monitoring the activation of NF-κB. A SEAP (secreted embryonic alkaline phosphatase) reporter gene was placed under the control of the IFN-β minimal promoter fused to five NF-κB and AP-1-binding sites. The SEAP was induced by activating NF-κB and AP-1 via stimulating HEK-Blue hTLR8 cells with TLR8 ligands. Therefore the reporter expression was declined by TLR8 antagonist under the stimulation of a ligand, such as R848, for incubation of 20 hrs. The cell culture supernatant SEAP reporter activity was determined using QUANTI-Blue™ kit (Cat.#: rep-qb1, Invivogen, San Diego, Ca, USA) at a wavelength of 640 nm, a detection medium that turns purple or blue in the presence of alkaline phosphatase.
HEK293-Blue-hTLR8 cells were incubated at a density of 250,000∼450,000 cells/mL in a volume of 170 µL in a 96-well plate in Dulbecco's Modified Eagle's medium (DMEM) containing 4.5 g/L glucose, 50 U/mL penicillin, […], […], 2 mM L-glutamine, 10% (v/v) heat-inactivated fetal bovine serum with addition of 20 µL test compound in a serial dilution in the presence of final DMSO at 1% and 10 µL of 60uM R848 in above DMEM, perform incubation under 37 °C in a CO2 incubator for 20 hrs. Then 20 µL of the supernatant from each well was incubated with 180 µL Quanti-blue substrate solution at 37°C for 2 hrs and the absorbance was read at 620∼655 nm using a spectrophotometer. The signalling pathway that TLR8 activation leads to downstream NF-κB activation has been widely accepted, and therefore similar reporter assay was modified for evaluating TLR8 antagonist.

| pIC50 | Compound |
| --- | --- |
| > 8.52 | C[C@@H]1CN(c2ccc(C#N)c3nccnc23)C[C@H](CN2Cc3ccc(N4CCN[C@@H](C)C4)cc3C2)O1 [Example 66, 8-[(2R,6S)-2-methyl-6-[[5-[(3S)-3-methylpiperazin-1-yl]isoindolin-2-yl]methyl]morpholin-4-yl]quinoxaline-5-carbonitrile] |
| 7.85 | C[C@@H]1CN(c2ccc(C#N)n3ncc(F)c23)C[C@H](CN2Cc3cc(N4CCNCC4)cnc3C2)O1 [Example 29, 3-fluoro-4-[(2R,6S)-2-methyl-6-[(3-piperazin-1-yl-5,7-dihydropyrrolo[3,4-b]pyridin-6-yl)methyl]morpholin-4-yl]pyrazolo[1,5-a]pyridine-7-carbonitrile] |
| 7.44 | COC(=O)C1CN(c2ccc3c(c2)CN(C[C@H]2CN(c4ccc(C#N)c5ncccc45)C[C@@H](C)O2)C3)CCN1 (stereo partly drawn) [Example 67, Methyl 4-[2-[[(2S,6R)-4-(8-cyano-5-quinolyl)-6-methyl-morpholin-2-yl]methyl]isoindolin-5-yl] piperazine-2-carboxylate] |
| 7.24 | C[C@@H]1CN(c2ccc(C#N)n3nccc23)C[C@H](CN2Cc3ccc(OCCN(C)C)cc3C2)O1 [Example 28, 4-[(2S,6R)-2-[[5-[2-(dimethylamino)ethoxy]isoindolin-2-yl]methyl]-6-methyl-morpholin-4-yl]pyrazolo[1,5-a]pyridine-7-carbonitrile] |
| 7.66 | C[C@@H]1CN(c2ccc(C#N)c3nccnc23)C[C@H](CNCc2ccc(N3CCNCC3)cc2)O1 [Example 84, 8-[(2R,6S)-2-methyl-6-[[(4-piperazin-1-ylphenyl)methylamino]methyl]morpholin-4-yl]quinoxaline-5-carbonitrile] |
| 8.40 | C[C@@H]1CN(c2ccc(C#N)c3ncccc23)C[C@H](CN2Cc3ccc(N4CCNCC4)cc3C(O)C2)O1 (stereo partly drawn) [Example 75, 5-[(2S,6R)-2-[(4-hydroxy-6-piperazin-1-yl-3,4-dihydro-1H-isoquinolin-2-yl)methyl]-6-methyl-morpholin-4-yl]quinoline-8-carbonitrile] |
| 8.00 | C[C@@H]1CN(c2ccc(C#N)c3ncccc23)C[C@H](CN2Cc3ccc(N4CCNCC4CO)cc3C2)O1 (stereo partly drawn) [Example 73, 5-[(2S,6R)-2-[[5-[2-(hydroxymethyl)piperazin-1-yl]isoindolin-2-yl]methyl]-6-methyl-morpholin-4-yl]quinoline-8-carbonitrile] |
| 8.10 | C[C@@H]1CN(c2ccc(C#N)c3ncccc23)C[C@H](CN2Cc3ccc(N4CC(N)C4)cc3C2)O1 [Example 77, 5-[(2S,6R)-2-[[5-(3-aminoazetidin-1-yl)isoindolin-2-yl]methyl]-6-methyl-morpholin-4-yl]quinoline-8-carbonitrile] |
| > 8.52 | C[C@@H]1CN(c2ccc(C#N)c3nccnc23)C[C@H](CN2Cc3cnc(N4CCNCC4)cc3C2)O1 [Example 60, 8-[(2R,6S)-2-methyl-6-[(6-piperazin-1-yl-1,3-dihydropyrrolo[3,4-c]pyridin-2-yl)methyl]morpholin-4-yl]quinoxaline-5-carbonitrile] |
| > 8.52 | C[C@@H]1CN(c2ccc(C#N)c3ncccc23)C[C@H](CN2Cc3cnc(N4CCNCC4)nc3C2)O1 [Example 63, 5-[(2R,6S)-2-methyl-6-[(2-piperazin-1-yl-5,7-dihydropyrrolo[3,4-d]pyrimidin-6-yl)methyl]morpholin-4-yl]quinoline-8-carbonitrile] |
| 8.40 | C[C@@H]1CN(c2ccc(C#N)c3ncccc23)C[C@H](CN2Cc3cc(N4CCNCC4)cnc3C2)O1 [Example 20, 5-[(2R,6S)-2-methyl-6-[(3-piperazin-1-yl-5,7-dihydropyrrolo[3,4-b]pyridin-6-yl)methyl]morpholin-4-yl]quinoline-8-carbonitrile] |
| 6.11 | C[C@@H]1CN(c2ccc(C#N)n3nccc23)C[C@H](CN2Cc3ccncc3C2)O1 [Example R2, 4-[(2S,6R)-2-(1,3-dihydropyrrolo[3,4-c]pyridin-2-ylmethy1)-6-methyl-morpholin-4-yl]pyrazolo[1,5-a]pyridine-7-carbonitrile, reference compound] |
| 7.28 | C[C@@H]1CN(c2ccc(C#N)n3nccc23)C[C@H](CN2Cc3ccc(N4CCN(C)CC4)cc3C2)O1 [Example 17, 4-[(2R,6S)-2-methyl-6-[[5-(4-methylpiperazin-1-yl)isoindolin-2-yl]methyl]morpholin-4-yl]pyrazolo[1,5-a]pyridine-7-carbonitrile] |
| 8.52 | C[C@@H]1CN(c2ccc(C#N)c3nccnc23)C[C@H](CN2Cc3cc(N4CCNCC4)cnc3C2)O1 [Example 30, 8-[(2R,6S)-2-methyl-6-[(3-piperazin-1-yl-5,7-dihydropyrrolo[3,4-b]pyridin-6-yl)methyl]morpholin-4-yl]quinoxaline-5-carbonitrile] |
| > 8.52 | C[C@@H]1CN(c2ccc(C#N)c3ncsc23)C[C@H](CN2Cc3ccc(N4CCNCC4)cc3C2)O1 [Example 23, 7-[(2R,6S)-2-methyl-6-[(5-piperazin-1-ylisoindolin-2-yl)methyl]morpholin-4-yl]-1,3-benzothiazole-4-carbonitrile] |
| 7.77 | 5-[(2S,6R)-2-[[5-[3-(hydroxymethyl)piperazin-1-yl]isoindolin-2-yl]methyl]-6-methyl-morpholin-4-yl]quinoline-8-carbonitrile [Example 85] |
| 7.05 | C[C@@H]1CN(c2ccc(C#N)n3nccc23)C[C@H](CN2Cc3ccc(C4CCNC4)cc3C2)O1 (stereo partly drawn) [Example 9, 4-[(2R,6S)-2-methyl-6-[(5-pyrrolidin-3-ylisoindolin-2-yl)methyl]morpholin-4-yl]pyrazolo[1,5-a]pyridine-7-carbonitrile] |
| 8.40 | C[C@@H]1CN(c2ccc(C#N)c3nccnc23)C[C@H](CN2Cc3ccc(N4CCN5CCCCC5C4)cc3C2)O1 (stereo partly drawn) [Example 40, 8-[(2S,6R)-2-[[5-(1,3,4,6,7,8,9,9a-octahydropyrido[1,2-a]pyrazin-2-yl)isoindolin-2-yl]methyl]-6-methyl-morpholin-4-yl]quinoxaline-5-carbonitrile] |
| 7.10 | C[C@@H]1CN(c2ccc(C#N)n3nccc23)C[C@H](CN2Cc3ccc(C4CCNCC4)cc3C2)O1 [Example 8, 4-[(2R,6S)-2-methyl-6-[[5-(4-piperidyl)isoindolin-2-yl]methyl]morpholin-4-yl]pyrazolo[1,5-a]pyridine-7-carbonitrile] |
| 8.40 | C[C@@H]1CN(c2ccc(C#N)c3ncccc23)C[C@H](CN2Cc3ccc(N4CCNCC4C(F)F)cc3C2)O1 (stereo partly drawn) [Example 76, 5-[(2S,6R)-2-[[5-[2-(difluoromethyl)piperazin-1-yl]isoindolin-2-yl]methyl]-6-methyl-morpholin-4-yl]quinoline-8-carbonitrile] |

| Compound | pIC50 |
| --- | --- |
| C[C@@H]1CN(c2ccc(C#N)c3ncccc23)C[C@H](CN2Cc3ccc(N4CC5CCC(C4)N5)cc3C2)O1 [Example 42, 5-[(2S,6R)-2-[[5-(3,8-diazabicyclo[3.2.1]octan-3-yl)isoindolin-2-yl]methyl]-6-methyl-morpholin-4-yl]quinoline-8-carbonitrile] | 7.89 |
| C[C@@H]1CN(c2ccc(C#N)c3ncccc23)C[C@H](CN2Cc3ccc(N4C5CCC4CNC5)cc3C2)O1 [Example 43, 5-[(2S,6R)-2-[[5-(3,8-diazabicyclo[3.2.1]octan-8-yl)isoindolin-2-yl]methyl]-6-methyl-morpholin-4-yl]quinoline-8-carbonitrile] | 7.92 |
